Experiments:
[1] = test system: AMATU WR-2012-017-08 (resistant against HPPD-inhibitor herbicides and atrazine (PSII-inhibitor)); experiment: Greenhouse pre-emergence herbicidal activity, AMATU WR-2012-017-08; format: in vivo, Amaranthus tuberculatus; details: 3 weeks, mean of 6
[2] = test system: AMATU WR-2013-044 (resistant against HPPD-inhibitor herbicides and atrazine (PSII-inhibitor)); experiment: Greenhouse pre-emergence herbicidal activity, AMATU WR-2013-044; format: in vivo, Amaranthus tuberculatus; details: 3 weeks, mean of 6

SMILES	Activity [%] against AMATU WR-2012-017-08 ([1]; rate 52 g/ha) [%]	Activity [%] against AMATU WR-2012-017-08 ([1]; rate 105 g/ha) [%]	Activity [%] against AMATU WR-2013-044 ([2]; rate 52 g/ha) [%]	Activity [%] against AMATU WR-2013-044 ([2]; rate 105 g/ha) [%]	Activity [%] against AMATU WR-2012-017-08 ([1]; rate 75 g/ha) [%]	Activity [%] against AMATU WR-2012-017-08 ([1]; rate 150 g/ha) [%]	Activity [%] against AMATU WR-2013-044 ([2]; rate 75 g/ha) [%]	Activity [%] against AMATU WR-2013-044 ([2]; rate 150 g/ha) [%]
CS(=O)(=O)c1ccc(C(=O)C2C(=O)CCCC2=O)c([N+](=O)[O-])c1 [MST, 2-[4-(methylsulfonyl)-2-nitrobenzoyl]cyclohexane-1,3-dione]	59.2	84.2	70.0	76.7	–	–	–	–
O=C(Nc1ccc(F)cc1F)c1cccnc1Oc1cccc(C(F)(F)F)c1 [DFF, 2′,4′-difluoro-2-[3-(trifluoromethyl)phenoxy]pyridine-3-carboxanilide]	–	–	–	–	66.7	86.3	69.2	80.8
